The subject of one data set is PC-3. The data set is described as follows: Cytotoxicity against human PC-3 cells assessed as reduction in cell viability at 50 uM incubated for 4 hrs by crystal violet staining based assay. It is filed as toxicity. As to conditions: pc-3, 4 h.
For a further data set, the system named is NHDF. The data set is described as follows: Cytotoxicity against human NHDF cells assessed as reduction in cell viability at 50 uM incubated for 4 hrs by crystal violet staining based assay. It is filed as toxicity.
The species named for the next data set is Homo sapiens. As to conditions: dose 4.2 mM.
Data set [1] has as its target Ephrin type-A receptor 2 (Homo sapiens) (UniProt P29317). The data set is described as follows: Induction of EPHA2 receptor internalization in human PC-3 cells assessed as effect on EPHA2 protein level at 50 uM preincubated for 4 hrs followed by ephrinA1-Fc addition and measured after 2 hrs by Western blotting analysis. The format is cell-based. To be noted: time 6.0 hrs.

Data set [2] has the same target. The experiment in a line: Induction of EPHA2 receptor internalization in human PC-3 cells assessed as effect on EPHA2 protein level at 50 uM incubated for 4 hrs by Western blotting analysis. The format is cell-based.
In data set [3] the target is Arf-GAP with Rho-GAP domain, ANK repeat and PH domain-containing protein 3 (Homo sapiens) (UniProt Q8WWN8). The experiment in a line: Binding affinity to N-terminal His6 tagged human ARAP3 Sam domain (1 to 80 residues) extracted from Escherichia coli BL21 (DE3) cells at 300 uM by NMR spectroscopy.
The nature of data set [4]: Self-assembly property of compound in 80% TFE assessed as helical content by circular dichroism spectra analysis. The format is physicochemical.
The target of data set [5] is Tyrosine-protein kinase Lyn (Homo sapiens) (UniProt P07948). The experiment in a line: Binding affinity to His tagged human LYN SH2 domain (129 to 226 residues) extracted from Escherichia coli BL21 (DE3) cells at 289 uM by NMR spectroscopy.

Activity calls are given as the source filed them. The calls are words filed in the database; no cut-off is given here. Where a SMILES comes first, the peptide text is derived from it.

Sequence of Ephrin type-A receptor 2 (Homo sapiens) (P29317 whole entry): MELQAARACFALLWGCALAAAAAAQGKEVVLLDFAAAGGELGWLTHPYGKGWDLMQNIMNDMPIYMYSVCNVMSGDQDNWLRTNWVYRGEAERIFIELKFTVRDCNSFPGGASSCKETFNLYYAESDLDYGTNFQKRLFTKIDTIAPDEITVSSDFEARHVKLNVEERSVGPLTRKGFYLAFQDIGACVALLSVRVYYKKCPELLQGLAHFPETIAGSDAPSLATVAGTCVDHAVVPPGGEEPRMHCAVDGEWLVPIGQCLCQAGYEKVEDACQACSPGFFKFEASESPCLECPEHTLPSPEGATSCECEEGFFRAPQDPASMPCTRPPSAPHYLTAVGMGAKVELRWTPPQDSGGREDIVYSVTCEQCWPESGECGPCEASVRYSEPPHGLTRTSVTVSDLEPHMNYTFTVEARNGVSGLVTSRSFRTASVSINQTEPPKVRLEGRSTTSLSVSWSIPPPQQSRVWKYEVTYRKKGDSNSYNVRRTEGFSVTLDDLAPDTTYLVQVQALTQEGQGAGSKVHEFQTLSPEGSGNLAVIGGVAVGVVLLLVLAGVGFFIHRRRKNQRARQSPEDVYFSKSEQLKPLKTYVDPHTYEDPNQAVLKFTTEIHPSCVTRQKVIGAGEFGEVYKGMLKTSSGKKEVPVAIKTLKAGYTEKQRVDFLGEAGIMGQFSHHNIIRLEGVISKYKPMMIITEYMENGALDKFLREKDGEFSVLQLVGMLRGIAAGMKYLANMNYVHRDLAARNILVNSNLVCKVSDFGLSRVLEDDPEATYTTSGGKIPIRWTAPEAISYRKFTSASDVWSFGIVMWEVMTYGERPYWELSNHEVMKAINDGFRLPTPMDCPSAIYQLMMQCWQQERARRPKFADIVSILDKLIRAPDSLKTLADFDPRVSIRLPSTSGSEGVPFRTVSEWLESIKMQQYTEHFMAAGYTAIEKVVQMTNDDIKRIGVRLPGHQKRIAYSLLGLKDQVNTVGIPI
Sequence of Arf-GAP with Rho-GAP domain, ANK repeat and PH domain-containing protein 3 (Homo sapiens) (Q8WWN8 whole entry, the tested form may be a part): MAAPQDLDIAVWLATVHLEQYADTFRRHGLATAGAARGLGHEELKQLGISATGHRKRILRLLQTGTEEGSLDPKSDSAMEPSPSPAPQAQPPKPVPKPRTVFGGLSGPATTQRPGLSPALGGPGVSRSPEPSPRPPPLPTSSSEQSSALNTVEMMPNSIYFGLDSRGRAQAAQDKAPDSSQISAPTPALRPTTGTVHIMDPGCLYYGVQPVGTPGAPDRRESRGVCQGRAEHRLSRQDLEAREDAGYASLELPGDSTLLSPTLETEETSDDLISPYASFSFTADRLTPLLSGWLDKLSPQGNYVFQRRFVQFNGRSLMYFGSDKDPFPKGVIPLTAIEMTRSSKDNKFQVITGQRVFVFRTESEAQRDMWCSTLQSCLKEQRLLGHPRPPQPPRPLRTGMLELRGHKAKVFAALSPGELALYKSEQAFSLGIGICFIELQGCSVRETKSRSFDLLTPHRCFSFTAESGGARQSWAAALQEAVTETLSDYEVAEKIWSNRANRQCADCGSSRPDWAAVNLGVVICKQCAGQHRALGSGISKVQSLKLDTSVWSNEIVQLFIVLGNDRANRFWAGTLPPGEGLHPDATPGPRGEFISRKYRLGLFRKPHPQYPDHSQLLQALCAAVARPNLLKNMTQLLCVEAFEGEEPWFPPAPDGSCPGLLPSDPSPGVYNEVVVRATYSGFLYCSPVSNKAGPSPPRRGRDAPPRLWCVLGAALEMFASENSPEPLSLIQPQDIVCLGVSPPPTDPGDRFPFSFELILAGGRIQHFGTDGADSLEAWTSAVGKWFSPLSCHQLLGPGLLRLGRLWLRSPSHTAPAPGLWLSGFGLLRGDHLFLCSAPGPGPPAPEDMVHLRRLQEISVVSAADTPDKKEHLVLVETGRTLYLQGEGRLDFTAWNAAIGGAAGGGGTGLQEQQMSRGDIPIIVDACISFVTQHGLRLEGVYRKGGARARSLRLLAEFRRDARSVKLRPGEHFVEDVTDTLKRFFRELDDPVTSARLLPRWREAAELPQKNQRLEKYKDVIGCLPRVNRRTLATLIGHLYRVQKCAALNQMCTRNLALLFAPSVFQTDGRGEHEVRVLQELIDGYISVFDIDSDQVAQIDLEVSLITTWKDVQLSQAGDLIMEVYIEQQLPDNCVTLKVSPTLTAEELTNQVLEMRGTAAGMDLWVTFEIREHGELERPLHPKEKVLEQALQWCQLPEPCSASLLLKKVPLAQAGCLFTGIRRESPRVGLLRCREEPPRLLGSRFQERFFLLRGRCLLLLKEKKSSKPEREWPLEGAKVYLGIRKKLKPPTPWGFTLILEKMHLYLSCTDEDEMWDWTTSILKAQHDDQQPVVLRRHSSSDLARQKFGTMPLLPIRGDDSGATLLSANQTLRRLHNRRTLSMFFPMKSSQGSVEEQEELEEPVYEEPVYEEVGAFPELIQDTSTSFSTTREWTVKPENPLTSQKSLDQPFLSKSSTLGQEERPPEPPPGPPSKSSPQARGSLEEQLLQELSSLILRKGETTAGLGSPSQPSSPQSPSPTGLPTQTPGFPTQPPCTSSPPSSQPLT
Sequence of Tyrosine-protein kinase Lyn (Homo sapiens) (P07948 2-512 limits assumed): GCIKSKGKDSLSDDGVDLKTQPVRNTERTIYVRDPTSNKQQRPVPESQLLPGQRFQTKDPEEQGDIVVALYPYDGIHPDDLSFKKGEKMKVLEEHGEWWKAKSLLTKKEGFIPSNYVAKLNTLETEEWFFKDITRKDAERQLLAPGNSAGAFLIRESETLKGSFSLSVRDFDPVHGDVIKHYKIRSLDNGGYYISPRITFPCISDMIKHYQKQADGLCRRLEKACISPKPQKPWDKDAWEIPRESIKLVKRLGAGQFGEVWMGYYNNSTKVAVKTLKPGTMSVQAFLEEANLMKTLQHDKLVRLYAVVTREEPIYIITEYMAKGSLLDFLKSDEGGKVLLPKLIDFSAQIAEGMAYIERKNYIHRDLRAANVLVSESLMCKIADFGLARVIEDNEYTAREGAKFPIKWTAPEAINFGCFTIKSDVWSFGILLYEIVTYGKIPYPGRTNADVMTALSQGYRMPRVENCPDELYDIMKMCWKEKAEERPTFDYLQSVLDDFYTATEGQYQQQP

Consider `CC(=O)N[C@@H](C)C(=O)NCC(=O)N[C@@H](CCCNC(=N)N)C(=O)N[C@@H](CCCCN)C(=O)N[C@@H](CCCCN)C(=O)N[C@@H](CCCNC(=N)N)C(=O)N[C@@H](CCCNC(=N)N)C(=O)N[C@@H](CCC(N)=O)C(=O)N[C@@H](CCCNC(=N)N)C(=O)N[C@@H](CCCNC(=N)N)C(=O)N[C@@H](CCCNC(=N)N)C(=O)N1CCC[C@H]1C(=O)N1CCC[C@H]1C(=O)N[C@@H](CCC(N)=O)C(=O)NCC(=O)NCC(=O)N[C@@H](CCCCN)C(=O)N[C@@H](CCCNC(=N)N)C(=O)N[C@@H](CCCCN)C(=O)N[C@@H](C)C(=O)N[C@@H](Cc1ccc(O)cc1)C(=O)N[C@@H](CCCCN)C(=O)N[C@@H](CCCNC(=N)N)C(=O)N[C@@H](CCCCN)C(=O)N[C@@H](C)C(=O)N[C@@H](Cc1ccc(O)cc1)C(=O)N[C@@H](CCCCN)C(=O)N[C@@H](CCCNC(=N)N)C(=O)N[C@@H](CCCCN)C(=O)N[C@@H](C)C(=O)N[C@@H](CO)C(N)=O`, for which the Activity result in the data set on PC-3 and in the data set on NHDF was “Toxic” in each case.

With `CC[C@H](C)[C@H](NC(=O)[C@H](CCCNC(=N)N)NC(=O)[C@H](CCCCN)NC(=O)[C@H](Cc1ccc(O)cc1)NC(=O)[C@H](C)NC(=O)[C@H](CCCCN)NC(=O)[C@H](CCCNC(=N)N)NC(=O)[C@H](CCCCN)NC(=O)[C@H](Cc1ccc(O)cc1)NC(=O)[C@H](C)NC(=O)[C@H](CCCCN)NC(=O)[C@H](CCCNC(=N)N)NC(=O)[C@H](CCCCN)NC(C)=O)C(=O)N[C@@H](C)C(=O)N[C@@H](Cc1ccc(O)cc1)C(N)=O` (Ac-KRKAYKRKAYKRIAY-NH2), the inhibition result in the data set listed under Homo sapiens was “inactive”.

As to `CC(=O)N[C@@H](C)C(=O)NCC(=O)N[C@H](CCCNC(=N)N)C(=O)N[C@H](CCCCN)C(=O)N[C@H](CCCCN)C(=O)N[C@H](CCCNC(=N)N)C(=O)N[C@H](CCCNC(=N)N)C(=O)N[C@H](CCC(N)=O)C(=O)N[C@H](CCCNC(=N)N)C(=O)N[C@H](CCCNC(=N)N)C(=O)N[C@H](CCCNC(=N)N)C(=O)N1CCC[C@H]1C(=O)N1CCC[C@H]1C(=O)N[C@@H](CCC(N)=O)C(=O)NCC(=O)NCC(=O)N[C@@H](CCCCN)C(=O)N[C@@H](CCCNC(=N)N)C(=O)N[C@@H](CCCCN)C(=O)N[C@@H](C)C(=O)N[C@@H](Cc1ccc(O)cc1)C(=O)N[C@@H](CCCCN)C(=O)N[C@@H](CCCNC(=N)N)C(=O)N[C@@H](CCCCN)C(=O)N[C@@H](C)C(=O)N[C@@H](Cc1ccc(O)cc1)C(=O)N[C@@H](CCCCN)C(=O)N[C@@H](CCCNC(=N)N)C(=O)N[C@@H](CCCCN)C(=O)N[C@@H](C)C(=O)N[C@@H](CO)C(N)=O`, the outcome in data set [1] and in data set [2] was inactive.

Turning to `CSCC[C@H](NC(=O)[C@H](Cc1ccccc1)NC(=O)[C@H](CCCCN)NC(=O)[C@H](CC(=O)O)NC(=O)[C@H](CCC(=O)O)NC(=O)[C@H](CCCNC(=N)N)NC(=O)[C@H](CCCNC(=N)N)NC(=O)[C@@H](NC(=O)[C@@H]1CCCN1C(=O)CNC(=O)CNC(=O)CNC(=O)[C@H](CCC(N)=O)NC(=O)[C@@H]1CCCN1C(=O)[C@H]1CCCN1C(=O)[C@H](CCCNC(=N)N)NC(=O)[C@H](CCCNC(=N)N)NC(=O)[C@H](CCCNC(=N)N)NC(=O)[C@H](CCC(N)=O)NC(=O)[C@H](CCCNC(=N)N)NC(=O)[C@H](CCCNC(=N)N)NC(=O)[C@H](CCCCN)NC(=O)[C@H](CCCCN)NC(=O)[C@H](CCCNC(=N)N)NC(=O)CNC(=O)[C@H](C)NC(C)=O)[C@@H](C)O)C(=O)N[C@@H](Cc1ccc(O)cc1)C(=O)N[C@@H](Cc1ccccc1)C(N)=O`, the result in data set [1] and in data set [2] was inactive.

Regarding `CC(=O)N[C@@H](CCCCN)C(=O)N[C@@H](CCCNC(=N)N)C(=O)N[C@@H](CCCCN)C(=O)N[C@@H](C)C(=O)N[C@@H](CO)C(=O)N[C@@H](CCCCN)C(=O)N[C@@H](CCCNC(=N)N)C(=O)N[C@@H](CCCCN)C(=O)N[C@@H](C)C(=O)N[C@@H](Cc1c[nH]c2ccccc12)C(=O)N[C@@H](CCCCN)C(=O)N[C@@H](CCCNC(=N)N)C(=O)N[C@@H](CCCCN)C(=O)N[C@@H](C)C(=O)N[C@@H](Cc1c[nH]c2ccccc12)C(N)=O` (Ac-KRKASKRKAWKRKAW-NH2), the outcome in data set [3] was inactive. Besides, in data set [4], the Activity is 21.1%.

Take `CC[C@H](C)[C@H](NC(=O)[C@H](CCCNC(=N)N)NC(=O)[C@H](CCCCN)NC(=O)CNC(=O)CNC(=O)[C@H](CCC(N)=O)NC(=O)[C@@H]1CCCN1C(=O)[C@@H]1CCCN1C(=O)[C@@H](CCCNC(=N)N)NC(=O)[C@@H](CCCNC(=N)N)NC(=O)[C@@H](CCCNC(=N)N)NC(=O)[C@@H](CCC(N)=O)NC(=O)[C@@H](CCCNC(=N)N)NC(=O)[C@@H](CCCNC(=N)N)NC(=O)[C@@H](CCCCN)NC(=O)[C@@H](CCCCN)NC(=O)[C@@H](CCCNC(=N)N)NC(=O)CNC(=O)[C@H](C)NC(C)=O)C(=O)N[C@@H](C)C(=O)N[C@@H](Cc1ccc(O)cc1)C(=O)N[C@@H](CCCCN)C(=O)N[C@@H](CCCNC(=N)N)C(=O)N[C@H](C(=O)N[C@@H](C)C(=O)N[C@@H](Cc1ccc(O)cc1)C(=O)N[C@@H](CCCCN)C(=O)N[C@@H](CCCNC(=N)N)C(=O)N[C@H](C(=O)N[C@@H](C)C(=O)N[C@@H](Cc1ccc(O)cc1)C(N)=O)[C@@H](C)CC)[C@@H](C)CC`: the result in data set [1] and in data set [2] was inactive.

For `CC(=O)N[C@@H](CCCCN)C(=O)N[C@@H](CCCNC(=N)N)C(=O)N[C@@H](CCCCN)C(=O)N[C@@H](C)C(=O)N[C@@H](Cc1c[nH]c2ccccc12)C(=O)N[C@@H](CCCCN)C(=O)N[C@@H](CCCNC(=N)N)C(=O)N[C@@H](CCCCN)C(=O)N[C@@H](C)C(=O)N[C@@H](Cc1ccc(O)cc1)C(=O)N[C@@H](CCCCN)C(=O)N[C@@H](CCCNC(=N)N)C(=O)N[C@@H](CCCCN)C(=O)N[C@@H](C)C(=O)N[C@@H](Cc1c[nH]c2ccccc12)C(N)=O` (Ac-KRKAWKRKAYKRKAW-NH2), in data set [5], the outcome was inactive.
